{"source": "ChEMBL document CHEMBL1129679", "about": "(J Med Chem, 1996)", "key": {"[1]": {"target": "T1, Dihydrofolate reductase (Homo sapiens, UniProt P00374)", "T1 sequence (P00374 whole entry)": "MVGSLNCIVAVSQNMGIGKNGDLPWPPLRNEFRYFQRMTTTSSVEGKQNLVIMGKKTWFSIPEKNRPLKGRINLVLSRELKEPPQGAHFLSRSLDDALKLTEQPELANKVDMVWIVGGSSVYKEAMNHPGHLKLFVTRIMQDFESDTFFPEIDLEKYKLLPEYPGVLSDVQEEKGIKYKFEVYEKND", "experiment": "Inhibitory activity against Dihydrofolate reductase (DHFR) isolated from CCRF-CEM human leukemia cells in experiment 1", "format": "cell-free"}, "[2]": {"target": "T1, Dihydrofolate reductase", "experiment": "Inhibitory activity against Dihydrofolate reductase (DHFR) isolated from CCRF-CEM human leukemia cells in experiment 2", "format": "cell-free"}}}
{"smiles": "CN(Cc1cnc2nc(N)nc(N)c2n1)c1ccc(C(=O)N[C@H](C[C@@H](F)C(=O)O)C(=O)O)cc1", "values": [{"measurement": "IC50", "setting": "[1]", "value": 0.84, "unit": "nM"}]}
{"smiles": "CN(Cc1cnc2nc(N)nc(N)c2n1)c1ccc(C(=O)NC(CC(F)C(=O)O)C(=O)O)cc1", "note": "(racemic)", "values": [{"measurement": "IC50", "setting": "[1]", "value": 1.35, "unit": "nM"}]}
{"smiles": "CN(Cc1cnc2nc(N)nc(N)c2n1)c1ccc(C(=O)NC(C(=O)O)C(F)(F)CC(=O)O)cc1", "note": "(racemic)", "values": [{"measurement": "IC50", "setting": "[2]", "value": 1.34, "unit": "nM"}]}
